Test [1] deals with NO. production by Caco-2 cells. As to the kind of experiment: NO. production (NO2- and NO3- in culture supernatants) by Caco-2 cells exposed to cytomix. Format: cell-based, human. The procedure: (§1) Measurement of NO. production and iNOS gene expression. NO. production^21 was measured and RT-PCR ^22 for iNOS mRNA and 18S RNA were performed as described. The gels were captured using an imaging workstation (NucleoVision), and quantified with GelExpert™ 3.5. Relative expression of iNOS is reported after normalizing for 18S loading in FIG. 4B.
(§2) Accordingly, it was determined whether NAD^+ decreased the production of NO. (as assessed by measuring NO2^− and NO3^− in culture supernatants) by Caco-2 cells exposed to cytomix (similar study using RAW monocyte-like cells is not shown). […] Again, there was a biphasic response to NAD^+ treatment; provided maximal inhibition and higher doses inhibited less well. Thus, another inflammatory response, namely the induction of iNOS gene expression and the concomitant production of NO., is blocked by extracellular NAD^+ in both myeloid and epithelial cells.

The subject of test [2] is NF-κB. As to the kind of experiment: NF-κB DNA binding by electrophoretic mobility shift assay, Caco-2 cells exposed to cytomix. In kind it is cell-based, human. The procedure: Electrophoretic mobility shift assay (EMSA). Nuclear extracts were prepared and analyzed as described.^23 However, 38.3 μL of 10% NP-40 was used to lyse the cells, the nuclei were isolated by centrifugation at 310 g for 3 min, and the nuclear pellets were resuspended in 80 μL of Buffer II.
iNOS induction is dependent, in part, on activation of the transcription factor NF-κB, a transcription factor that is required for a variety of monocyte inflammatory responses, e.g., to LPS. Therefore, we tested the ability of NAD^+ to inhibit DNA binding by NF-κB in Caco-2 cells exposed to cytomix. […] NAD^+ alone had no effect on the nuclear levels of NF-κB.
For orientation: In EMSA bound probe runs differently from free probe, usually more slowly.

For the next test, the system named is TNF-α. As to the kind of experiment: LPS-induced TNF-α release from RAW cells, ELISA. In kind it is cell-based, mouse. The following applies: 1 μM. The method, then:
Whether NAD^+ could prevent the production of tumor necrosis factor α (TNF-α), a potent proinflammatory cytokine produced by activated monocytes and macrophages, was tested. Supernatants were collected from RAW cells treated with LPS in the absence or presence of NAD^+. TNF-α levels were quantitated by ELISA.
In general terms: An ELISA detects its analyte on a solid surface through an enzyme-linked reagent.

Test [3] deals with Caco-2 human enterocyte-like cells. As to the kind of experiment: Paracellular permeability of Caco-2 monolayers, apical-to-basolateral clearance of FD4, cytomix. In kind it is cell-based. The procedure:
Cell Culture. Caco-2 human enterocyte-like cells were routinely maintained at 37° C. in DMEM with 10% FBS, as described by Han et al. ^9 All cells were fed by changing the cell culture medium twice per week. For experiments, cells were grown on Transwell inserts (0.4 μm pore size; Corning Costar Corp., Cambridge, Mass.) and used 14-17 days post-confluence. […] Caco-2 monolayers growing on permeable supports were left untreated or exposed to cytomix for 24 or 48 h in the absence or presence of graded concentrations of NAD^+ or adenosine. Paracellular permeability was determined by measuring the apical-to-basolateral flux of FD4. Epithelial permeability was unaffected when monolayers were incubated with NAD^+ alone. Exposing Caco-2 cells to cytomix increased the clearance of FD4 across the monolayers (FIG. 1A). Addition of NAD^+ ameliorated cytomix-induced epithelial hyperpermeability in a concentration-dependent manner. […] NAD^+ is structurally related to a nucleoside, adenosine, that is known to exert anti-inflammatory effects by binding to certain purinergic receptors;^24 accordingly, the possibility that activation of a receptor for adenosine was responsible for the amelioration of cytokine-induced hyperpermeability by NAD^+ was considered. To investigate this idea, Caco-2 monolayers were exposed to cytomix in the absence or presence of 10 μmol/L adenosine (FIG. 1A).

Test [4] has as its system mice challenged with a lethal dose of Escherichia coli O111:B4 LPS. As to the kind of experiment: LPS-induced mortality in mice. In kind it is in vivo. Conditions: LPS 17 mg/kg; intravenous and intraperitoneal, 1 mg/kg pre-treatment then 1 mg/kg every 6 h for five more doses.
The subject of test [5] is NF-κB. As to the kind of experiment: Nuclear NF-κB levels by electrophoretic mobility shift assay, LPS-stimulated RAW 264.7 cells. Format: cell-based, mouse. The following applies: 10 ng/ml LPS, 15 min. The procedure: Additional studies were performed to show the potent anti-inflammatory capacity of extracellular NAD^+. RAW 264.7 cells in tissue culture dishes were stimulated with LPS prepared from Escherichia coli strain 011:B4, and the activation of NF-κB was measured. Some cells were exposed to 10 ng/ml LPS in the presence of 1-100 μM NAD. Nuclear proteins were extracted from the cells 15 min after exposure to the compounds, and NF-κB levels were determined using the electrophoretic mobility shift assay.
Thus, very low doses of extracellular NAD^+ can effectively block the activation of NF-κB, an important transcription factor mobilized during an inflammatory response.

Test [6] relates to occludin and ZO-1 in Caco-2 cells. As to the kind of experiment: ZO-1 and occludin in NP-40-insoluble fraction, immunoprecipitation and Western blot, Caco-2 cells exposed to cytomix. In kind it is cell-based, human. Background: A western blot detects proteins with antibodies after separation by electrophoresis.
For a further test, the system named is Caco-2 cells. As to the kind of experiment: Immunofluorescence microscopy of ZO-1 and occludin localization in Caco-2 cells exposed to cytomix. In kind it is cell-based, human. The following applies: cytomix 48 h, 10 μmol/L added at 0 and 24 h. The procedure: Immunofluorescence. All procedures were performed at 0-4° C. as described.^9 Caco-2 cells growing on 24 well clear Transwell inserts were fixed and stained with a mouse anti-ZO-1 monoclonal antibody (mAb; BD Translabs, Franklin Lakes, N.J.) and rabbit an anti-occludin polyclonal antibody diluted 1:100. The secondary antibodies were 5 μg/mL FITC-conjugated affinity-purified donkey anti-mouse IgG and 15 μg/mL TRITC-conjugated affinity-purified goat anti-rabbit IgG (Jackson ImmunoResearch Laboratories).
Immunofluorescence microscopy was used to assess the structure of TJs in Caco-2 cells grown on Transwells. The cells were either left untreated (FIG. 3; Panel CON) or exposed to cytomix for 48 h in the absence (Panel C48) or presence (Panel N10) of extracellular NAD^+ (10 μmol/L added at 0 and 24 h). The cells were permeabilized, fixed, and stained using FITC- and TRITC-conjugated antibodies directed against ZO-1 and occludin, respectively. In control confluent Caco-2 monolayers, these proteins both were predominantly localized to regions near cell-cell boundaries. Staining was even and continuous. Following treatment with cytomix, dispersed lesions appeared throughout the monolayer, in which immunostaining for ZO-1 at cell boundaries became faint, diffuse, and discontinuous. Exposure to cytomix also was associated with “ruffling” of ZO-1 and occludin immunostaining. […]

Test [7] has as its system inducible nitric oxide synthase (iNOS) mRNA. As to the kind of experiment: iNOS mRNA expression by RT-PCR in Caco-2 cells exposed to cytomix. Format: cell-based, human. The following applies: biphasic response. The procedure:
as §1, §2

The test system of the next test is mouse ileal mucosa. As to the kind of experiment: Ileal mucosal permeability to FD4 (ex vivo everted gut sac) in LPS-injected mice. Conditions: LPS 17 mg/kg IP, two 132 mg/kg doses (IV then IP 12 h later), ileum at 18 h. The procedure:
Animals. This research complied with regulations regarding animal care as published by the National Institutes of Health and was approved by the Institutional Animal Use and Care Committee of the University of Pittsburgh. Male 7-8 week old C57Bl/6J mice weighing 20-25 g were from Jackson Laboratories (Bar Harbor, Me.). To induce a systemic inflammatory response, mice were injected intraperitoneally (IP) with Escherichia coli (strain O111:B4) LPS (17 mg/kg) dissolved in 1.0 ml of PBS. Control animals were injected with a similar volume of PBS. Some mice were treated with an intravenous (IV) injection (100 μL) of either PBS or 132 mg/kg NAD^+ in PBS given 5 min before LPS or PBS injection, and this injection was repeated IP 12 h later. Groups of mice were anesthetized with 60-90 mg/kg sodium pentobarbital 18 h after the first injection with PBS or LPS. Segments of ileum were harvested to assess mucosal permeability to FD4 using an ex vivo everted gut sac method as previously described.^20
In the setting of systemic inflammation, circulating blood monocytes often encounter lipopolysaccharide (LPS), a potent inflammatory molecule derived from the outer surface of Gram-negative bacteria. […]

For the compound `NC(=O)c1ccc[n+]([C@@H]2O[C@H](COP(=O)([O-])OP(=O)(O)OC[C@H]3O[C@@H](n4cnc5c(N)ncnc54)[C@H](O)[C@@H]3O)[C@@H](O)[C@H]2O)c1` [NAD^+, nicotinamide adenine dinucleotide], in test [1] (cytomix), the “concentration giving maximal inhibition of NO. production” value was 100 µmol/L. Besides, the “inhibition of NO. production” value in [1] (cytomix, 1000 μmol/L compared with 100 μmol/L) is reported as “inhibition was decreased”. In addition, the “cytomix-increased production of NO.” value in [1] (graded concentrations) is reported as “inhibited in a concentration-dependent manner”. Also, the “cytomix-induced NF-κB activation” value in the test on NF-κB [2] (1 μmol/L, nuclear extracts 4 h) is recorded as “no effect”. For the same compound, the “nuclear levels of NF-κB” value in the test with NF-κB [2] (NAD+ alone, no cytomix) is “no effect”. Moreover, in the test with NF-κB [2] (cytomix, 10 or 100 μmol/L, nuclear extracts 4 h), the “NF-κB DNA binding” value is reported as “clearly decreased”. Further, the “LPS-induced release of TNF-α” value with TNF-α was “partially blocked”. For the same compound, the “protection against cytomix-induced hyperpermeability” value in test [3] (10 and 100 μmol/L) is recorded as “statistically significant”. The cytomix-induced epithelial hyperpermeability result in test [3] (cytomix 24 or 48 h, graded concentrations, concentration-dependent) is “ameliorated”. Also, the “Epithelial permeability (FD4 flux)” value in test [3] (monolayers incubated with NAD+ alone, no cytomix) is given as “unaffected”. Besides, the mortality result in [4] is given as “completely prevented mortality”. For the same compound, in the test with NF-κB [5] (1 μM), the “nuclear localization of NF-κB” value is given as “dramatically decreased”. Also, the “nuclear NF-κB levels” value with NF-κB [5] (100 μM) is “near baseline levels”. For the same compound, the “occludin and ZO-1 in NP-40-insoluble complexes” value in test [6] (cytomix 48 h with 10 or 100 μmol/L) is reported as “normal levels of these proteins were present”. Besides, the “staining of ZO-1 and occludin at cell-cell boundaries” value with Caco-2 cells is “continuous staining”. Further, in test [7], the “cytomix-increased expression of iNOS mRNA” value is “blocked this effect”. Moreover, the “increase in mucosal permeability to FD4 induced by LPS” value in the test with mouse ileal mucosa was “significantly ameliorated”.

Turning to `Nc1ncnc2c1ncn2[C@@H]1O[C@H](COP(=O)(O)OP(=O)(O)OC[C@H]2OC(O)[C@H](O)[C@@H]2O)[C@@H](O)[C@H]1O` (some centres unmarked) [ADP-ribose], the expression of occludin result in test [6] (cytomix, co-incubation with 10 or 100 μmol/L) is “failed to preserve occludin expression”.

Turning to `Nc1ncnc2c1ncn2[C@@H]1O[C@H](CO)[C@@H](O)[C@H]1O` [Adenosine, adenosine, reference compound], in [3] (10 μmol/L), the “induction of hyperpermeability by cytomix” value is on record as “no effect”. In addition, the “decrease in NP-40-insoluble occludin or ZO-1” value in test [6] (cytomix 48 h with 10 μM) is on record as “failed to prevent”.

The values are drawn from patent publication US7332479B2, “Extracellular NAD+ and cADPR as potent anti-inflammatory agents” (University of Pittsburgh - of the Commonwealth System of …, priority 2003, dated 2008).
